Laboratory results from US20240101572A1, “DIHYDROOXADIAZINONE COMPOUND AND PHARMACEUTICAL USE THEREOF” (Japan Tobacco Inc., priority 2022, published 2024).
Where two headings read alike, the source gives them in different places.

Columns and labels:
[1] = biological target: full-length human PLD1 (Homo sapiens (Human), UniProt Q13393); assay: Evaluation of human PLD1 enzyme inhibitory activity (Amplex Red / choline oxidase fluorescence); format: biochemical
Outline: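 Fluorescence read-out couples choline to Amplex Red via choline oxidase and peroxidase after a 60 min room-temperature reaction. Enzyme: FLAG-tagged full-length human PLD1 from Expi293F cells, anti-FLAG purified; substrate diheptanoyl phosphatidylcholine; HEPES pH 7.5 assay buffer with 0.01% NP-40, 0.1% BSA, 5% DMSO final.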

[2] = biological target: full-length human PLD2 (Homo sapiens (Human), UniProt O14939); assay: Evaluation of human PLD2 enzyme inhibitory activity (Amplex Red / choline oxidase fluorescence); format: biochemical
Outline: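 Released choline was read by Amplex Red fluorescence coupled to choline oxidase and HRP after a 60 min room-temperature reaction. Substrate was diheptanoyl phosphatidylcholine, added as a 6 mmol/L solution, and enzyme was FLAG-tagged full-length human PLD2 from Expi293F, added as a 6 nmol/L solution. Buffer was 50 mM HEPES pH 7.5 with 5% final DMSO.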

[3] = full-length human PLD1 enzyme, read-out: PLD1 IC50
[4] = full-length human PLD2 enzyme, read-out: PLD2 IC50

Chain of full-length human PLD1 (Q13393 other isoform, or with tags, fused parts or gaps): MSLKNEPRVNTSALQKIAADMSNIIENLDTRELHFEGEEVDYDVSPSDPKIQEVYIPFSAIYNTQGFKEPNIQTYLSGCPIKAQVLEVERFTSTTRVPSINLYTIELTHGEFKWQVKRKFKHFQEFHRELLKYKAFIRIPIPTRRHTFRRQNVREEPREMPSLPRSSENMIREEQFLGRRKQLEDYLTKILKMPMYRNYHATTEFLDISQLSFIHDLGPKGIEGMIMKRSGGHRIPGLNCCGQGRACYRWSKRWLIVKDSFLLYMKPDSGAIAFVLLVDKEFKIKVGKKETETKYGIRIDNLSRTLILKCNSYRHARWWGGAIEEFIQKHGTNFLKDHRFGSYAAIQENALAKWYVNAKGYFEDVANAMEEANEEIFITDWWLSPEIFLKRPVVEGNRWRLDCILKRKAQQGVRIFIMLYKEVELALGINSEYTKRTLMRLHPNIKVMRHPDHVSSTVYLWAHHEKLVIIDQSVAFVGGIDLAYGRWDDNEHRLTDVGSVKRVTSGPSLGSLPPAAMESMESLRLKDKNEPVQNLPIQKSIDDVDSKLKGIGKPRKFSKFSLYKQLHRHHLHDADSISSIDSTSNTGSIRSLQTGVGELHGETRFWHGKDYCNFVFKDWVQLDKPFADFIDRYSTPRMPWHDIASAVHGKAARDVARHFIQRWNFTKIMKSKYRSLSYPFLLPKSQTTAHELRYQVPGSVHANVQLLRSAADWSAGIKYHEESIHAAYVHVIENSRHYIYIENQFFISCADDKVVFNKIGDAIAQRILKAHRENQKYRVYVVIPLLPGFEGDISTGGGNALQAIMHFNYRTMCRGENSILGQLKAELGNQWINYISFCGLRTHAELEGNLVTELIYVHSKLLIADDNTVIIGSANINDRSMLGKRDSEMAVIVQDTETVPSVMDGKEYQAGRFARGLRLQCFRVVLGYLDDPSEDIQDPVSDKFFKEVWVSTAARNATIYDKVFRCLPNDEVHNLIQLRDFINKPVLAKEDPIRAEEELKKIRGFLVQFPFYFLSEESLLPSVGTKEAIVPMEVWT
Chain of full-length human PLD2 (O14939 whole entry): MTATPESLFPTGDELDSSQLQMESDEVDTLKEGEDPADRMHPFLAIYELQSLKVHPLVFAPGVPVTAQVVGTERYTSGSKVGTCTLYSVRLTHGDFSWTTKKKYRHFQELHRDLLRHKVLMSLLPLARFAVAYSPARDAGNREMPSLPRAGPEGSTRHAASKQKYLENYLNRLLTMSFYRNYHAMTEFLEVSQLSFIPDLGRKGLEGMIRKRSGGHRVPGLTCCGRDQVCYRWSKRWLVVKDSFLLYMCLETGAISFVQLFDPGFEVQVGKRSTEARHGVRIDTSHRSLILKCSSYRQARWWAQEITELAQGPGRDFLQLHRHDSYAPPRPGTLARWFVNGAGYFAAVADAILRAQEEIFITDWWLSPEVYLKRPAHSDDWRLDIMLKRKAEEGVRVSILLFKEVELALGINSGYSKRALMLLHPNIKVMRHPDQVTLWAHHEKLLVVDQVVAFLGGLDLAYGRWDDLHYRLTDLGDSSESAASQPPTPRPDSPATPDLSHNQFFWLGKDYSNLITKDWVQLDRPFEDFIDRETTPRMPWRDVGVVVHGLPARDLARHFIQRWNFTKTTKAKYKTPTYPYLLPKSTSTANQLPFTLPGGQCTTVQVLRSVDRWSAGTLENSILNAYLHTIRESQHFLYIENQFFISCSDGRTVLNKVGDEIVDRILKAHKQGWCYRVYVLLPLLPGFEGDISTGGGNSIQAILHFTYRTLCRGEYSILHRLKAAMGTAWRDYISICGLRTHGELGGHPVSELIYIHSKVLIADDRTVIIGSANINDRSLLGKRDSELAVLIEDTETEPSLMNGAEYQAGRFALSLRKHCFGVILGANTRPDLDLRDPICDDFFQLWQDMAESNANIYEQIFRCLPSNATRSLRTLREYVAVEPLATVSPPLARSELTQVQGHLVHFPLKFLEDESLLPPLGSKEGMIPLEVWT

Row | Compound | IC50 [1, 3] | IC50 [2, 4] | IC50 ([1]; column 1 of continuation tables 2-12 to 2-14, read-out: human PLD1 enzyme inhibitory activity IC50) | IC50 ([2]; column 2 of continuation tables 2-12 to 2-14, read-out: human PLD2 enzyme inhibitory activity IC50)
1 | C[C@@H](C[C@H]1CC[C@]2(CC1)OC(=O)NN=C2c1ccc(F)cc1)NC(=O)c1cc2ccccc2o1 [Example 7] | 30 nM | 44 nM | – | –
2 | CNC(=O)C(=O)N[C@@H](C)CN1CCC2(CC1)OC(=O)NN=C2c1cc(C(C)(C)O)ccc1Br [Example 2-034] | 31 nM | 10 nM | – | –
3 | C[C@@H](C[C@H]1CC[C@]2(CC1)OC(=O)NN=C2c1ccc(F)cc1Cl)NC(=O)c1cc(Cl)no1 [Example 63] | < 10 nM | < 10 nM | – | –
4 | CNC(=O)C(=O)N[C@@H](C)C[C@H]1CC[C@]2(CC1)OC(=O)NN=C2c1cnc(C)cc1C [Example 173] | 29 nM | 10 nM | – | –
5 | C[C@@H](CN1CCC2(CC1)OC(=O)NN=C2c1ccc(F)cc1Br)NC(=O)NC1CC1 [Example 189] | 130 nM | 140 nM | – | –
6 | CNC(=O)C(=O)N[C@@H](C)[C@H](C)[C@H]1CC[C@]2(CC1)OC(=O)NN=C2c1cc(C#N)ccc1Br [Example 338] | 24 nM | < 10 nM | – | –
7 | CNC(=O)C(=O)N[C@@H](C)CN1CC[C@@]2(C[C@H]1C)OC(=O)NN=C2c1ccc(C#N)cc1Cl [Example 233] | 1860 nM | 1800 nM | – | –
8 | CNC(=O)C(=O)N[C@@H](C)CC1CCC2(CC1)OC(=O)NN=C2c1ccncc1C (mixture of isomers) [Example 125] | 40 nM | 57 nM | – | –
9 | COc1cc(C)c(C2=NNC(=O)O[C@]23CC[C@@H](C[C@H](C)NC(=O)C(=O)NC2CC2)CC3)cn1 [Example 220] | 42 nM | 33 nM | – | –
10 | C[C@@H](C[C@H]1CC[C@]2(CC1)OC(=O)NN=C2c1ccc(OC(F)(F)F)cc1Br)NC(=O)c1cc(Cl)no1 [Example 81] | 12 nM | < 10 nM | – | –
11 | C[C@@H](C[C@H]1CC[C@]2(CC1)OC(=O)NN=C2c1ccc(C#N)cc1Br)NC(=O)N1Cc2ccccc2C1 [Example 109] | 12 nM | < 10 nM | – | –
12 | COc1cc(C)c(C2=NNC(=O)O[C@]23CC[C@@H](C[C@H](C)NC(=O)N2CCn4nccc4C2)CC3)cn1 [Example 237] | 34 nM | < 10 nM | – | –
13 | CNC(=O)C(=O)N[C@@H](C)C[C@H]1CC[C@]2(CC1)OC(=O)NN=C2c1cnc(N2CC(C(F)F)C2)cc1C [Example 227] | 19 nM | < 10 nM | – | –
14 | CNC(=O)C(=O)N[C@@H](C)C[C@H]1CC[C@]2(CC1)OC(=O)NN=C2c1cnc(OCC(F)(F)F)cc1C [Example 170] | 19 nM | < 10 nM | – | –
15 | COc1cc(C)c(C2=NNC(=O)O[C@]23CC[C@@H](C[C@H](C)NC(=O)N2CCc4ccccc4C2)CC3)cn1 [Example 236] | 15 nM | < 10 nM | – | –
16 | CNC(=O)C(=O)N[C@@H](C)C[C@H]1CC[C@]2(CC1)OC(=O)NN=C2c1cccnc1C [Example 102] | 288 nM | 666 nM | – | –
17 | C[C@@H](C[C@H]1CC[C@]2(CC1)OC(=O)NN=C2c1cn(C)nc1I)NC(=O)c1cc(Cl)no1 [Example 2-046] | 24 nM | 118 nM | – | –
18 | CNC(=O)C(=O)N[C@@H](C)CN1C[C@H]2CC[C@@H](C1)[C@@]21OC(=O)NN=C1c1ccc(F)cc1Cl [Example 196] | 27 nM | < 10 nM | – | –
19 | CNC(=O)C(=O)N[C@@H](C)C[C@]1(C#N)CC[C@@]2(CC1)OC(=O)NN=C2c1cc(C(F)(F)F)ccc1Br [Example 2-066] | 15 nM | < 10 nM | – | –
20 | CCCC(=O)N[C@@H](C)C[C@H]1CC[C@]2(CC1)OC(=O)NN=C2c1ccc(F)cc1Br [Example 42] | 247 nM | 261 nM | – | –
21 | COc1cc(C)c(C2=NNC(=O)O[C@]23CC[C@@H](C[C@H](C)NC(=O)N2CCc4ncccc4C2)CC3)cn1 [Example 264] | 36 nM | < 10 nM | – | –
22 | Cc1ccncc1C1=NNC(=O)O[C@]12CC[C@@H](C[C@H](C)NC(=O)c1cc3ccccc3o1)CC2 [Example 114] | 13 nM | < 10 nM | – | –
23 | CNC(=O)C(=O)N[C@@H](C)C[C@H]1CC[C@]2(CC1)OC(=O)NN=C2c1cccc(Br)c1 [Example 24] | 41 nM | 31 nM | – | –
24 | Cc1cc(C(=O)N[C@@H](C)CC2CC[C@]3(C[C@@H]2F)OC(=O)NN=C3c2ccc(F)cc2Br)[nH]n1 (stereo partly drawn) [Example 286] | 14 nM | < 10 nM | – | –
25 | Cc1cc(F)ccc1C1=NNC(=O)O[C@]12CC[C@@H](C[C@H](C)NC(=O)N1CC3CCCCC3C1)CC2 (mixture of isomers) [Example 150] | 880 nM | 640 nM | – | –
26 | [2H]C([2H])([2H])NC(=O)C(=O)N[C@@H](C)C[C@]1(C#N)CC[C@@]2(CC1)OC(=O)NN=C2c1cccc(C(F)(F)F)c1Br [Example 2-118] | – | – | 19 nM | < 10 nM
27 | CNC(=O)C(=O)N[C@@H](C)C[C@H]1CC[C@]2(CC1)OC(=O)NN=C2c1ncccc1C [Example 147] | 32 nM | 32 nM | – | –
28 | Cc1cc(C(=O)N[C@@H](C)CN2CCC3(CC2)OC(=O)NN=C3c2cc(C#N)ccc2Br)[nH]n1 [Example 312] | 29 nM | < 10 nM | – | –
29 | Cc1cc(F)ccc1C1=NNC(=O)O[C@]12CC[C@@H](C[C@H](C)NC(=O)N1CCc3ccccc3C1)CC2 [Example 155] | 14 nM | < 10 nM | – | –
30 | Cc1ccc(C(=O)N[C@@H](C)C[C@H]2CC[C@]3(CC2)OC(=O)NN=C3c2ccc(F)cc2Br)nn1 [Example 252] | 174 nM | 335 nM | – | –
